Reference: patent publication US20240216513A1, “FATTY ACID-BIFUNCTIONAL DEGRADER CONJUGATES AND THEIR METHODS OF USE” (Novartis AG, priority 2021, published 2024)

How the values were obtained:
BTK C481S = target: T1, BTK C481S (Homo sapiens, UniProt Q06187, C481S); assay: PD screen in TMD8 BTK C481S mutant tumor-bearing mice, BTK levels and compound concentrations in blood and tumor; format: in vivo, mouse; conditions: 20 mgL/kg (unconjugated V)
T1 construct: endogenous in cells; host or cells: TMD8 BTK C481S mutant tumour xenografts in mice
T1 sequence (Q06187 whole entry C481S): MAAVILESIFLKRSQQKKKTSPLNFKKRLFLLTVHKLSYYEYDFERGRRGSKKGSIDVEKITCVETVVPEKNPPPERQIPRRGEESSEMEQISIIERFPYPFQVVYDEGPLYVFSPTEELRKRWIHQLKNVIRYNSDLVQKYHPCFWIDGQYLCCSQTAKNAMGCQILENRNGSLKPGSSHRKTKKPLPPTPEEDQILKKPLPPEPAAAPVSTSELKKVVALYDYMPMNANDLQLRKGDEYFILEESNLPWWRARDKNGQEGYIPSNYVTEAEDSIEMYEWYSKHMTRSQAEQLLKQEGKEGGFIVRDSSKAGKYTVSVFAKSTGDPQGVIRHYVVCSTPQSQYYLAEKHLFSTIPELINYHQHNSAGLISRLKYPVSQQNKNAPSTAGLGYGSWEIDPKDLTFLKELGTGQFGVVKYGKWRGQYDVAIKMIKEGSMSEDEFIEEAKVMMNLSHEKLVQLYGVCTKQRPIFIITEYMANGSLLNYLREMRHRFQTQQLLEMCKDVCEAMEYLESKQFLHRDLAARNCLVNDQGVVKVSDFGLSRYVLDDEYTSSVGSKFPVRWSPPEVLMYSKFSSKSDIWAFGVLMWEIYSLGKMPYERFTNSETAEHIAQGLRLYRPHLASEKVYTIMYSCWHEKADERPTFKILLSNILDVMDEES
Method in brief: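 Single compound injection in mice bearing TMD8 BTK C481S tumors, groups of 2, with blood and tumor sampled at day 0, 4, 7 and sometimes 10. Compound levels measured by UPLC/MS-MS and BTK levels by Meso Scale Discovery.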

[1] = BTK FAC plasma stability assay, PBS buffer arm; format: physicochemical; conditions: incubation to 24 h
Method in brief: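 Stability in PBS buffer or EDTA-treated plasma is followed over 24 h at 38 °C with shaking. Protein precipitation with acetonitrile (glyburide 0.2 µM as internal standard) stops each timepoint, and LC-MS/MS gives analyte-to-standard area ratios.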

TMD8 tumors = assay: Efficacy in ectopic (subcutaneous) TMD8 tumor-bearing SCID/BEIGE mice, tumor volume; format: in vivo, mouse; conditions: 20 mgL/kg (unconjugated V)
Experimental: All animal experiments were performed according to procedures covered by permit number BS-1974, BS-1975 and BS-2904 issued by the Kantonales Veterinäramt Basel-Stadt and strictly adhered to the Eidgenössisches Tierschutzgesetz and the Eidgenössische Tierschutzverordnung. Female Sprague Dawley rat were obtained from Charles Rivers (Germany), female Balb/c mice from Charles Rivers (Italy) and female SCID/BEIGE (C.B-Igh-1b/GbmsTac-Prkdcscid-Lystbg N7) mice from Taconic. All the animals were housed in a pathogen-controlled environment with access to food and water ad libitum and they were identified with transponders.
Subcutaneous TMD8 tumors were induced by injecting tumor cells expanded in vitro in the right flank of SCID/BEIGE mice. As soon as the injection was finished, antagonization (naloxone, flumazenil and atipamezole injected s.c.) was injected and mice are put on a warming pad for recovery and carefully checked during that time.
For PK experiments, non-tumor bearing mice or rats were treated once (10 mL/kg) with a compound either i.v. or s.c. Serial blood samplings from the tail vein (5-20 μl) were collected during the course of the experiment. For PK/PD experiments in tumor-bearing mice, compound was administered once (10 mL/kg) either i.v. or s.c. Animals were randomized into groups of n=3 and tissue samples were collected at several time points. At the times indicated, animals were anaesthetized by exposure to 2-3% v/v isoflurane in medical oxygen. They were sacrificed without recovering from anesthetic after blood sampling into commercially prepared EDTA coated tubes (Milian, cat #TOM-14C) in order to extract plasma. The tissues were excised, weighted and rapidly frozen in liquid nitrogen. Later, tumors were cryogenic dry pulverized with the CryoPrep™ system (model CP-02, Covaris). For efficacy experiments in ectopic tumor-bearing mice, animals were randomized into groups of n=6 for a mean tumor size of 100 mm^3 and compound was administered either i.v. q3w or s.c. q2w. When implanted in brain, animals were randomized into groups of n=4 for a mean bioluminescence of 1.0-2.0E+06 [p/s]/[ρW/cm^2] and compound was administered i.v. qw. Tumor response were reported with the measures of tumor volumes or bioluminescence from the treatment start. Concentrations of compound in blood and tissues were determined simultaneously by UPLC/MS-MS. BTK and IL-10 levels in tumor were determined by Meso Scale Discovery (MSD).

[2] = BTK FAC plasma stability assay, dog plasma; format: in vitro ADME

SMILES: COc1ccc(C(=O)N2CCC3(CCN(CCc4ccc(-c5cc6c(-c7cc(F)cc(NC(=O)c8ccc(C(C)(C)O)cc8F)c7C)ncnc6[nH]5)cc4)CC3)CC2)cc1N1CCC(=O)NC1=O [Compound V, N-(3-(6-(4-(2-(9-(3-(2,4-Dioxotetrahydropyrimidin-1(2H)-yl)-4-methoxybenzoyl)-3,9-diazaspiro[5.5]undecan-3-yl)ethyl)phenyl)-7H-pyrrolo[2,3-d]pyrimidin-4-yl)-5-fluoro-2-methylphenyl)-2-fluoro-4-(2-hydroxypropan-2-yl)benzamide]
- Duration of BTK degradation in mouse ≥90% (BTK C481S; i.v.): <4 days
- Duration of BTK degradation in mouse ≥90% (days) (BTK C481S; s.c.): Not tolerated
- Plasma stability (h) PBS [1]: >48 h
- Dosing frequency to achieve sustained 90% regression (TMD8 tumors; i.v.): 2qw (85%)
- Dosing frequency to achieve sustained 90% regression (TMD8 tumors; s.c.): Not tolerated
- Plasma stability (h) dog [2]: >48 h
